Results on eleven compounds are retold here after DBAASP.

Among the test systems are Escherichia coli UB1005; Escherichia coli K-12; Bacillus subtilis 168.
What all share (experiment): ≥ marks a high value that may be exact or a test limit, other limits are often not marked, values filed in µg/mL are converted to µM
Assay [1] deals with Staphylococcus epidermidis ATCC 12228.
Assay [2] relates to Staphylococcus aureus ATCC 29213.
Assay [3] has as its system Salmonella enterica subsp. enterica serovar Typhimurium C77-31.
Assay [4] concerns Escherichia coli ATCC 25922.
Assay [5] relates to Staphylococcus aureus ATCC 25923.
The subject of assay [6] is Pseudomonas aeruginosa PAO1.
Assay [7] relates to Salmonella enterica serovar Typhimurium.
Assay [8] relates to Bacillus subtilis ATCC 23857.
The subject of assay [9] is Pseudomonas aeruginosa ATCC 27853.
Assay [10] relates to Enterococcus faecalis ATCC 29212.
The test system of assay [11] is Acinetobacter baumannii ATCC 19606.
Assay [12] deals with Klebsiella pneumoniae ATCC 700603.
For assay [13], the system named is Staphylococcus aureus USA 300.

Converted amounts (≈) assume the structure as drawn.

With `CC[C@H](C)[C@H](NC(=O)[C@H](CCCCN)NC(=O)[C@H](CCCCN)NC(=O)[C@H](CC(C)C)NC(=O)[C@@H](NC(=O)[C@H](CCCCN)NC(=O)CNC(=O)[C@@H](NC(=O)[C@H](CCCCN)NC(=O)[C@H](CCCCN)NC(=O)[C@H](CC(C)C)NC(=O)[C@H](CCCN=C(N)N)NC(=O)[C@H](CCCCN)NC(=O)[C@H](CCCN=C(N)N)NC(=O)[C@@H](NC(=O)[C@H](CCCCN)NC(=O)[C@H](CCCCN)NC(=O)[C@H](CCCN=C(N)N)NC(=O)[C@H](CC(C)C)NC(=O)[C@H](CCCN=C(N)N)NC(=O)[C@H](CCCN=C(N)N)NC(=O)[C@H](Cc1ccccc1)NC(=O)[C@H](CCCN=C(N)N)NC(=O)CN)[C@@H](C)O)[C@@H](C)CC)C(C)C)C(N)=O` [GRFRRLRKKTRKRLKKIGKVLKKI], the MIC in assay [1] is 32 µM (≈ 96.2 µg/mL); in assay [2] it was 32 µM (≈ 96.2 µg/mL); in assay [3], no less than 128 µM; against Escherichia coli UB1005, 16 µM (≈ 48.1 µg/mL); in assay [4], 32 µM (≈ 96.2 µg/mL); in assay [5], 64 µM (≈ 192 µg/mL).

With `CC[C@H](C)[C@H](NC(=O)[C@H](CCCN=C(N)N)NC(=O)[C@H](Cc1c[nH]c2ccccc12)NC(=O)[C@H](CS)NC(=O)[C@@H](N)C(C)C)C(=O)N[C@@H](CCCN=C(N)N)C(=O)N[C@H](C(=O)N[C@@H](C)C(=O)N[C@H](C(=O)N[C@H](C(=O)N[C@@H](CCCN=C(N)N)C(=O)N[C@@H](C)C(=O)O)[C@@H](C)CC)C(C)C)C(C)C` [VCWRIRVAVIRA], the minimum inhibitory concentration (MIC) was 44.4 µM (≈ 64 µg/mL) in assay [6], 44.4 µM (≈ 64 µg/mL) in assay [4], no less than 44.4 µM in [7] and 22.2 µM (≈ 32 µg/mL) in assay [5].

Consider `CC(C)C[C@H](NC(=O)[C@H](CC(C)C)NC(=O)[C@@H](NC(=O)[C@H](CCCCN)NC(=O)[C@H](Cc1c[nH]c2ccccc12)NC(=O)[C@H](CCCN=C(N)N)NC(=O)[C@H](CCCCN)NC(=O)[C@H](CC(C)C)NC(=O)[C@H](CC(C)C)NC(=O)CN)[C@@H](C)O)C(N)=O` [GLLKRWKTLL], for which the minimum inhibitory concentration (MIC) in assay [1] was 16 µM (≈ 19.6 µg/mL); in assay [8], no less than 128 µM; in assay [9] it was 4 µM (≈ 4.91 µg/mL); in [10] it was 256 µM (≈ 314 µg/mL); in [11], 256 µM (≈ 314 µg/mL); in [4], 64 µM (≈ 78.5 µg/mL). Also, the minimal inhibitory concentration (MIC) in assay [12] turned out to be 64 µM (≈ 78.5 µg/mL); in [5] it was 128 µM (≈ 157 µg/mL).

In the case of `CC(C)C[C@H](NC(=O)[C@H](C)NC(=O)[C@@H](NC(=O)[C@H](CCCCN)NC(=O)[C@H](C)NC(=O)[C@H](CCCN=C(N)N)NC(=O)[C@H](CCCCN)NC(=O)[C@H](C)NC(=O)[C@H](C)NC(=O)CN)[C@@H](C)O)C(N)=O` [GAAKRAKTAL], the MIC was greater than 512 µM in assay [1]; no less than 512 µM in assay [8]; greater than 512 µM in assay [9]; greater than 512 µM in assay [10]; greater than 512 µM in [11]; greater than 512 µM in assay [4]. For the same compound, the minimal inhibitory concentration (MIC) in assay [12] and in assay [5] was greater than 512 µM in each case.

For `CC[C@H](C)[C@H](NC(=O)[C@H](CCCCN)NC(=O)[C@H](CCCCN)NC(=O)[C@H](CC(C)C)NC(=O)[C@H](CCCN=C(N)N)NC(=O)[C@H](CC(=O)O)NC(=O)[C@H](CCCN=C(N)N)NC(=O)[C@@H](NC(=O)[C@H](CCCCN)NC(=O)[C@H](CC(=O)O)NC(=O)[C@H](CCCN=C(N)N)NC(=O)[C@H](CC(C)C)NC(=O)[C@H](CCCN=C(N)N)NC(=O)[C@H](CCCN=C(N)N)NC(=O)[C@H](Cc1ccccc1)NC(=O)[C@@H](N)CCCN=C(N)N)[C@@H](C)O)C(N)=O` [RFRRLRDKTRDRLKKI], the MIC in [1] was greater than 128 µM; in assay [2], greater than 128 µM; in assay [3] it was no less than 128 µM; with Escherichia coli UB1005, no less than 128 µM; in assay [10], greater than 128 µM; in assay [4], greater than 128 µM.

For the compound `CC(C)C[C@H](NC(=O)[C@H](CCCN=C(N)N)NC(=O)[C@H](CCCCN)NC(=O)[C@H](Cc1c[nH]c2ccccc12)NC(=O)[C@@H](NC(=O)[C@H](CCCCN)NC(=O)[C@H](CCCCN)NC(=O)[C@H](Cc1c[nH]c2ccccc12)NC(=O)[C@H](CC(C)C)NC(=O)[C@H](CCCN=C(N)N)NC(=O)[C@@H](N)CCCN=C(N)N)[C@@H](C)O)C(=O)N[C@@H](Cc1c[nH]c2ccccc12)C(N)=O` [RRLWKKTWKRLW], the MIC in assay [1] stood at 8 µM (≈ 14 µg/mL); in [2], 8 µM (≈ 14 µg/mL); in [3], 8 µM (≈ 14 µg/mL); in the assay with Escherichia coli UB1005, 4 µM (≈ 7.02 µg/mL); in assay [4] it was 4 µM (≈ 7.02 µg/mL); in assay [5], 16 µM (≈ 28.1 µg/mL).

Regarding `CC[C@H](C)[C@H](NC(=O)CN)C(=O)N[C@H](C(=O)N[C@@H](C)C(=O)NCC(=O)N[C@H](C(=O)N[C@H](C(=O)N[C@@H](CCCCN)C(=O)N[C@H](C(=O)N[C@H](C(=O)N[C@@H](CCCCN)C(=O)N[C@@H](C)C(N)=O)[C@@H](C)CC)[C@@H](C)CC)[C@@H](C)CC)[C@@H](C)CC)[C@@H](C)CC` [GIIAGIIKIIKA], the results for the MIC in assay [8] and in assay [4] were 16 µM (≈ 19.3 µg/mL) and greater than 128 µM, respectively.

For `CC(C)C[C@H](NC(=O)[C@H](CC(C)C)NC(=O)[C@H](CCCCN)NC(=O)[C@@H]1CCCN1C(=O)[C@H](CC(C)C)NC(=O)[C@H](CC(C)C)NC(=O)[C@H](CCCCN)NC(=O)[C@H](CC(C)C)NC(=O)[C@H](CC(C)C)NC(=O)[C@H](CO)NC(=O)CNC(=O)[C@H](Cc1ccccc1)NC(=O)[C@@H](N)Cc1ccccc1)C(N)=O` [FFGSLLKLLPKLL], the MIC was 12.5 µM (≈ 18.6 µg/mL) in the assay with Escherichia coli K-12, 1.1 µM (≈ 1.64 µg/mL) in [13], 70.7 µM (≈ 105 µg/mL) in [6] and 3.12 µM (≈ 4.64 µg/mL) against Bacillus subtilis 168.

Regarding `CC[C@H](C)[C@H](N)C(=O)N[C@@H](Cc1c[nH]c2ccccc12)C(=O)N[C@@H](CC(C)C)C(=O)N[C@H](C(=O)N[C@@H](C)C(=O)N[C@@H](CC(C)C)C(=O)N[C@@H](CCCCN)C(=O)N[C@@H](Cc1ccccc1)C(=O)N[C@@H](CC(C)C)C(=O)NCC(=O)N[C@@H](CCCCN)C(=O)N[C@@H](Cc1cnc[nH]1)C(=O)N[C@@H](C)C(=O)N[C@@H](C)C(=O)N[C@@H](CCCCN)C(=O)N[C@@H](Cc1cnc[nH]1)C(=O)N[C@@H](CC(C)C)C(=O)N[C@@H](C)C(=O)N[C@@H](CCCCN)C(=O)N[C@@H](CCC(N)=O)C(=O)N[C@@H](CCC(N)=O)C(=O)N[C@@H](CC(C)C)C(=O)N[C@@H](CO)C(=O)N[C@@H](CCCCN)C(=O)N[C@@H](CC(C)C)C(=O)O)[C@@H](C)O` [IWLTALKFLGKHAAKHLAKQQLSKL], the MIC in the assay with Escherichia coli K-12 worked out at 25 µM (≈ 71.1 µg/mL); in [13], 3.1 µM (≈ 8.82 µg/mL); in assay [6] it was 25 µM (≈ 71.1 µg/mL); in the assay on Bacillus subtilis 168, 6.25 µM (≈ 17.8 µg/mL).

For the compound `CC(C)C[C@H](NC(=O)[C@H](CC(C)C)NC(=O)[C@H](CCCCN)NC(=O)[C@@H]1CCCN1C(=O)[C@H](CC(C)C)NC(=O)[C@H](CC(C)C)NC(=O)[C@H](CCCCN)NC(=O)[C@H](CC(C)C)NC(=O)[C@H](CC(C)C)NC(=O)[C@H](CO)NC(=O)CNC(=O)[C@H](CC(C)C)NC(=O)[C@@H](N)CC(C)C)C(N)=O` [LLGSLLKLLPKLL], the minimal inhibitory concentration (MIC) is 12.5 µM (≈ 17.7 µg/mL) in the assay on Escherichia coli K-12, 1.1 µM (≈ 1.57 µg/mL) in assay [13], greater than 100 µM in assay [6] and 3.12 µM (≈ 4.43 µg/mL) with Bacillus subtilis 168.

`CC(C)C[C@H](NC(=O)[C@H](Cc1ccccc1)NC(=O)CN)C(=O)N[C@@H](CCCCN)C(=O)N[C@@H](CCCN=C(N)N)C(=O)N[C@@H](Cc1ccccc1)C(=O)N[C@@H](CCCCN)C(=O)N[C@H](C(=O)N[C@@H](CC(C)C)C(=O)N[C@@H](Cc1ccccc1)C(N)=O)[C@@H](C)O` [GFLKRFKTLF]: the minimum inhibitory concentration (MIC) in [1] was 8 µM (≈ 10 µg/mL); in [8] it was no less than 64 µM; in assay [9], 8 µM (≈ 10 µg/mL); in assay [10], 128 µM (≈ 161 µg/mL); in [11], 128 µM (≈ 161 µg/mL); in [4] it was 64 µM (≈ 80.4 µg/mL). The figures for the MIC in assay [12] and in assay [5] were 128 µM (≈ 161 µg/mL) and 64 µM (≈ 80.4 µg/mL), respectively.
